Source: the supplement of paper PMC3974653
Counter-ions that a name gives are not always drawn.

System: MTT (mouse pheochromocytoma)
Experiment: IC50 of cell viability (ATP content)
Settings: (24 or 48 h)
Outline: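 MTT mouse pheochromocytoma cells in white 1536-well plates were treated for 24 or 48 hrs with library compounds at 8 final concentrations from 0.5 nM to 46 µM. ATP content was measured with CellTiter-Glo luminescence, using positive-control wells as 100% and DMSO wells as 0%. IC50 came from a four-parameter logistic fit.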

SMILES	IC50 of cell viability [µM]
CC12NC(Cc3ccccc31)c1ccccc12.O=C(O)/C=C/C(=O)O (single isomer, unassigned; (-)) [(-)-MK-801 hydrogen maleate]	> 46
CC1[C@H]2Cc3ccc(O)cc3[C@]1(C)CCN2C (single isomer, unassigned; (-)) [(-)-Metazocine]	> 46
COc1ccc2c3c1O[C@H]1[C@@H](O)C=C[C@H]4C(C2)NCCC341 (single isomer, unassigned; (-)) [(-)-NORCODEINE]	> 46
CC(C)=CCN1CC[C@@]2(C)c3cc(O)ccc3C[C@@H]1C2C (single isomer, unassigned; (-)) [(-)-Pentazocine]	> 46
CC1[C@H]2Cc3ccc(O)cc3[C@]1(C)CCN2CCc1ccccc1 (single isomer, unassigned; (-)) [(-)-Phenazocine]	> 46
O=C(NC1N=C(c2ccccc2F)c2cccc3c2N(CC3)C1=O)c1cc2ccccc2[nH]1 (stereo in doubt)	> 46
CCN(CC)CCO[C@H]1CC[C@@]2(C)C(=CC[C@@H]3C2CC[C@]2(C)C(=O)CCC32)C1 (stereo in doubt) [3b-(2-Diethylaminoethoxy)androst-5-en-17-one, HCl]	> 46
COc1ccc2cc(C(C)C(=O)[O-])ccc2c1.[Na+] (stereo in doubt) [(R) -Naproxen sodium salt]	> 46
CNC1(c2ccccc2Cl)CCCCC1=O (stereo in doubt) [(R)-(+)-Ketamine]	> 46
CNC1(c2ccccc2Cl)CCCCC1=O (stereo in doubt) [(S)-(-)-Ketamine]	> 46
CC(=O)NC(CC(C)C)C(=O)O (stereo in doubt) [ACETYL-L-LEUCINE]	> 46
O=C(O)C(O)[C@@H](O)[C@H](O)C(=O)CO (stereo in doubt) [D-XYLO-5-HEXULOSONIC ACID, CALCIUM SALT]	> 46
NC(COP(=O)(O)O)C(=O)O (stereo in doubt) [O-PHOSPHO-L-SERINE]	> 46
CC(C)=CCCC(C)=CCCC(C)=CCC/C=C(\C)CC/C=C(\C)CCC=C(C)C (stereo in doubt) [Squalene]	> 46
Clc1ccccc1Cl [1,2-Dichlorobenzene]	> 46
ClCC1CO1 (stereo not given) [1,2-Epoxy-3-chloropropane (Epichlorohydrin)]	> 46
Nc1ccccc1N [1,2-Phenylenediamine]	> 46
CC(O)CO (stereo not given) [1,2-Propylene glycol]	> 46
COc1cc(OC)cc(OC)c1 [1,3,5-TRIMETHOXYBENZENE]	> 46
N=C1NC(=N)c2cc3ccccc3cc21 [1,3-Diiminobenz[f]isoindoline]	> 46
O=[N+]([O-])c1cc([N+](=O)[O-])c2ccccc2c1 [1,3-Dinitronaphthalene]	> 46
N=C(Nc1ccccc1)Nc1ccccc1 [1,3-Diphenylguanidine]	> 46
O=[S+]([O-])(O)CCC[S+](=O)([O-])O.[NaH] [1,3-PROPANEDISULFONIC ACID, DISODIUM SALT]	> 46
Nc1cccc2c(N)cccc12 [1,5-Diaminonaphthalene]	> 46
CCCC(=O)c1cc(O)c(O)cc1O [1-(2,4,5-trihydroxyphenyl)-1-butanone]	> 46

SMILES	IC50 of cell viability [µM]
C/C=C(\CC)C(=O)NC(N)=O [1-(2-ETHYLCROTONOYL)UREA]	> 46
COc1ccccc1N1CCNCC1.Cl [1-(2-Methoxyphenyl)piperazine hydrochloride]	> 46
CC(=O)OC1(c2ccccc2)CCN(CCc2ccccc2)CC1 [1-(2-Phenylethyl)-4-phenyl-4-acetoxypiperidine]	> 46
Clc1cccc(N2CCNCC2)c1 [1-(3-CHLOROPHENYL)PIPERAZINE]	> 46
c1ccc(CN2CCNCC2)cc1 [1-Benzylpiperazine]	> 46
O=[N+]([O-])c1ccc(F)c([N+](=O)[O-])c1 [1-Fluoro-2,4-dinitrobenzene]	> 46
CCC(=O)OC1(c2ccccc2)CCN(C)CC1 [1-Methyl-4-phenyl-4-propionoxypiperidine]	> 46
O=C(O)Cc1cccc2ccccc12 [1-Naphthalene acetic acid]	> 46
O=C(O)Cc1cccc2ccccc12 [1-Naphthaleneacetic acid]	> 46
N#CC1(N2CCCCC2)CCCCC1 [1-PIPERIDINOCYCLOHEXANECARBONITRILE]	> 46
CC1=NN(c2ccccc2)C(=O)C1 [1-Phenyl-3-methyl-5-pyrazolone]	> 46
NC1(c2ccccc2)CCCCC1 [1-Phenylcyclohexyl]	> 46
Nc1ncnc2c1ncn2[C@H]1CC[C@@H](CO)O1 [2',3'-DIDEOXYADENOSINE]	> 46
NC/1=N/C(=O)N(/C=C1)[C@H]2CC[C@@H](CO)O2 [2',3'-Dideoxycytidine]	> 46
O=[N+]([O-])c1c(Cl)c(Cl)cc(Cl)c1Cl [2,3,5,6-Tetrachloronitrobenzene]	> 46
c1ccc2occc2c1 [2,3-Benzofuran]	> 46
O.O=S(=O)([O-])CC(S)CS.[Na+] (stereo not given) [2,3-DIMERCAPTOPROPANE-1-SULFONATE SODIUM]	> 46
CCCCCCCCCCCCCCCC(=O)OC[C@@H](COP(=O)([O-])OCC[N+](C)(C)C)OC(=O)CCCCCCCCCCCCCCC [2,3-Dipalmitoyl-sn-glycero-1-phosphocholine]	> 46
Oc1cc(Cl)c(Cl)cc1Cl [2,4,5-Trichlorophenol]	> 46
COc1cc(OC)c(OC)cc1C=O [2,4,5-Trimethoxybenzaldehyde]	> 46
Oc1c(Br)cc(Br)cc1Br [2,4,6-Tribromophenol]	> 46
Nc1cc(O)nc(N)n1 [2,4-Diamino-6-hydroxypyrimidine]	> 46
CCN(CC)N(O)N=O.CCNCC [2-(N,N-DIETHYLAMINO)DIAZENOLATE-2-OXIDE DIETHYLAMONIUM SALT]	> 46
Nc1ncnc(Nc2ccc(Cl)cc2)n1 [2-AMINO-4-(4-CHLOROANILINO)-1,3,5-TRIAZINE]	> 46
N=C(N)NN.O=[S+]([O-])(O)O [2-AMINOGUANIDINE HEMISULFATE]	> 46
